In patent US20230382924A1, “MODULATORS OF CYSTIC FIBROSIS TRANSMEMBRANE CONDUCTANCE REGULATOR” (VERTEX PHARMACEUTICALS INCORPORATED, priority 2020, published 2023):

Assays:
Type in all cases: cell-based
F508del = molecular target: T1, F508del (Homo sapiens, UniProt P13569, DEL508-508); assay: 3T3 assay: membrane potential optical assay for F508del correction in NIH 3T3 cells; conditions: for Emax: NIH3T3, read-out: 3T3 Max Activity
T1 construct: expressed in transfected cells
From the text: 1. Membrane Potential Optical Methods for Assaying F508del Modulation Properties of Compounds
The assay utilizes fluorescent voltage sensing dyes to measure changes in membrane potential using a fluorescent plate reader (e.g., FLIPR III, Molecular Devices, Inc.) as a readout for increase in functional F508del in NIH 3T3 cells. The driving force for the response is the creation of a chloride ion gradient in conjunction with channel activation by a single liquid addition step after the cells have previously been treated with compounds and subsequently loaded with a voltage sensing dye.
2. Identification of Corrector Compounds
To identify correctors of F508del, a single-addition HTS assay format was developed. This HTS assay utilizes fluorescent voltage sensing dyes to measure changes in membrane potential on the FLIPR III as a measurement for increase in gating (conductance) of F508del in F508del NIH 3T3 cells. The F508del NIH 3T3 cell cultures were incubated with the corrector compounds at a range of concentrations for 18-24 hours at 37° C., and subsequently loaded with a redistribution dye. The driving force for the response is a Cl^− ion gradient in conjunction with channel activation with forskolin in a single liquid addition step using a fluorescent plate reader such as FLIPR III.
Bath Solution #1: (in mM) NaCl 160, KCl 4.5, CaCl2) 2, MgCl2 1, HEPES 10, pH 7.4 with NaOH.
Chloride-free bath solution: Chloride salts in Bath Solution #1 (above) are substituted with gluconate salts.
NIH3T3 mouse fibroblasts stably expressing F508del are used for optical measurements of membrane potential. The cells are maintained at 37° C. in 5% CO2 and 90% humidity in Dulbecco's modified Eagle's medium supplemented with 2 mM glutamine, 10% fetal bovine serum, 1×NEAA, b-ME, 1×pen/strep, and 25 mM HEPES in 175 cm^2 culture flasks. For all optical assays, the cells were seeded at ˜20,000/well in 384-well matrigel-coated plates. For the correction assays, the cells are cultured at 37° C. with and without compounds for 16-24 hours.

CFTR [1] = molecular target: T2, CFTR (Homo sapiens, UniProt P13569); assay: Membrane Potential Dye, Enteroid Assay A; conditions: for EC50: read-out: Ent. A EC50
T2 sequence (P13569 with tags, fused parts or gaps DEL508-508): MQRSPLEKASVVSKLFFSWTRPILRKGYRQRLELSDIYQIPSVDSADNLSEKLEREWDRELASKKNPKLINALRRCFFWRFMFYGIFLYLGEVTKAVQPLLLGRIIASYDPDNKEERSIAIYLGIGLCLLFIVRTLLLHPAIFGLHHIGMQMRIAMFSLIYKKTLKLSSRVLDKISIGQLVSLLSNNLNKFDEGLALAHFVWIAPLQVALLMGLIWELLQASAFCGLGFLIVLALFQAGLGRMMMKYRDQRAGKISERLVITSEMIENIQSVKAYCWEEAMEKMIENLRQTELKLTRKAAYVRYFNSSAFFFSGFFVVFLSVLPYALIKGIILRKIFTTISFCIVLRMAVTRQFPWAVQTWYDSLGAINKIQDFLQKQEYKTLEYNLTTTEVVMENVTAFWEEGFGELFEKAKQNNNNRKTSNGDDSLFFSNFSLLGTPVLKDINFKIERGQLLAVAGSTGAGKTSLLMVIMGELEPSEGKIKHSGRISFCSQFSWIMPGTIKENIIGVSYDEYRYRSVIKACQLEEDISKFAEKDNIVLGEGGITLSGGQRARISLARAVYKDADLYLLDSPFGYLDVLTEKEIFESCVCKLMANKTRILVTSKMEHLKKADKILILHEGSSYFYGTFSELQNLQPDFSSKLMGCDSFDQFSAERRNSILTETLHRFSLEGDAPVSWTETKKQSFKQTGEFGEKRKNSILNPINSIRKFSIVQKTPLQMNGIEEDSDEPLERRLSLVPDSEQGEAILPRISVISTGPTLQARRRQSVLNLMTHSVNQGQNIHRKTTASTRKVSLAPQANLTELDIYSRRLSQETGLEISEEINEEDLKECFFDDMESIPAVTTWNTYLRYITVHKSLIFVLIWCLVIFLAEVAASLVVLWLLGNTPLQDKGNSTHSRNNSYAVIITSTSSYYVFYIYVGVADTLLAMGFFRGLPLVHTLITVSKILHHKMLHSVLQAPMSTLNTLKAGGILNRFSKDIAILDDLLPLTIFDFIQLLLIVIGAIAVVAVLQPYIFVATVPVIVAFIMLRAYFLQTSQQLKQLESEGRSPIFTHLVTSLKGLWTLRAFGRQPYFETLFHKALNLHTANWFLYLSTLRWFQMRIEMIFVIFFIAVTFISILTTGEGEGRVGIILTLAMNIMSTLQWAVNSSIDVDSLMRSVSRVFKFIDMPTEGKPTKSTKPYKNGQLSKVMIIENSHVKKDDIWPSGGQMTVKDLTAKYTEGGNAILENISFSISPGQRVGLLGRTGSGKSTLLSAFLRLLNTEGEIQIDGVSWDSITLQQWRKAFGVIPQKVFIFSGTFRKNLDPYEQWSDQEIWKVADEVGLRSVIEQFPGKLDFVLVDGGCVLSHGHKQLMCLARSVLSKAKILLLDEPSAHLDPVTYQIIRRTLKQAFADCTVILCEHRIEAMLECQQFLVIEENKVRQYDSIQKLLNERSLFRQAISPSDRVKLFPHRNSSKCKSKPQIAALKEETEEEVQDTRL
Summary of the method: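 Signal is reported as % Activity relative to a triple CFTR modulator control (3 μM + 3 μM + 300 nM acute). Read-out: membrane potential fluorescence (20 μM methyl oxonol) monitored for 15 min after chloride-free stimulation. Dye loading took 25 min at room temperature in Bath 1 buffer containing CaCC blockers.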

CFTR [2] = molecular target: T2, CFTR; assay: Membrane Potential Dye, Enteroid Assay B; conditions: Table 9; for EC50: read-out: Ent. B EC50
Summary of the method: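 Enteroid cells loaded 25 min at room temperature with 20 μM methyl oxonol plus 30 μM CaCCinh-A01 and 30 μM Chicago Sky Blue, then switched to chloride-free gluconate buffer. Chloride transport was started by chloride-free stimulation solution, with fluorescence read for 15 min.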

[3] = NIH 3T3 cells, F508del correction

T1 sequence (P13569 with tags, fused parts or gaps DEL508-508): as above

Row | Emax (F508del; Table 8) [%] | EC50 (F508del; Table 8) [µM] | EC50 (CFTR [1]; Table 8) [µM] | Ent. A Max Activity (CFTR [1]; Table 8) | SMILES | other results
1 | > 60 | < 1 | < 1 | – | Cc1cccc(C)c1-c1cc2nc(n1)NS(=O)(=O)c1cccc(c1)C(=O)NCC(c1ccc3c(c1)OCO3)O2 (stereo not shown) [Compound 118] | –
2 | > 60 | < 1 | < 1 | +++ (+++ is >60%) | CCCC[C@@H]1Oc2cc(-c3c(C)cccc3C)nc(n2)NS(=O)(=O)c2cccc(c2)C(=O)N[C@@H]1CC1CCCCC1 (stereo in doubt) [Compound 287] | –
3 | > 60 | < 1 | < 1 | +++ (+++ is >60%) | Cc1cccc(C)c1-c1cc2nc(n1)NS(=O)(=O)c1cccc(c1)C(=O)N[C@H](CC(C)C)[C@@H](C1CCCCC1)O2 [Compound 140] | –
4 | > 60 | < 1 | 1 to 3 | +++ (+++ is >60%) | CC(C)C[C@@H]1COc2cc(-c3ccccc3F)nc(n2)NS(=O)(=O)c2cccc(c2)C(=O)N1 [Compound 315] | –
5 | > 60 | < 1 | 3 to 30 | + (+ is <30%) | Cc1cccc(C)c1-c1cc2nc(n1)NS(=O)(=O)c1cccc(c1)C(=O)NC[C@H](c1cccc(C(C)(C)C)c1)O2 (stereo in doubt) [Compound 274] | –
6 | > 60 | < 1 | < 1 | +++ (+++ is >60%) | Cc1cccc(C)c1-c1cc2nc(n1)NS(=O)(=O)c1ccccc1C(=O)NCC(C1CCC(C)(C)CC1)O2 (stereo not shown) [Compound 284] | –
7 | > 60 | < 1 | < 1 | +++ (+++ is >60%) | Cc1cccc(C)c1-c1cc2nc(n1)NS(=O)(=O)c1cccc(c1)C(=O)NC[C@@H](c1ccc(C(F)(F)F)cc1)O2 (stereo in doubt) [Compound 401] | –

Continued, compound first:

Row | SMILES | Emax (F508del; Table 8) [%] | EC50 (F508del; Table 8) [µM] | EC50 (CFTR [1]; Table 8) [µM] | Ent. A Max Activity (CFTR [1]; Table 8) | other results
8 | Cc1cccc(C)c1-c1cc2nc(n1)NS(=O)(=O)c1cccc(c1)C(=O)NCC(c1ccc(C(C)C)cc1)O2 (stereo not shown) [Compound 272] | > 60 | < 1 | 1 to 3 | + (+ is <30%) | –
9 | Cc1cccc(C)c1-c1cc2nc(n1)NS(=O)(=O)c1cccc(c1)C(=O)N[C@H](C1CCCCC1)CO2 [Compound 493] | > 60 | < 1 | < 1 | +++ (+++ is >60%) | –
10 | COc1cccc(C)c1-c1cc2nc(n1)NS(=O)(=O)c1cccc(c1)C(=O)N[C@H](CC(C)C)CO2 [Compound 318] | – | – | – | – | EC50 (F508del; [3]): < 1 µM; Ent. A Max Activity (CFTR [1]; Enteroid Assay A): +++ (+++ is >600%); EC50 (CFTR [1]; Enteroid Assay A): 1 to 3 µM
11 | Cc1ccccc1-c1cc2nc(n1)NS(=O)(=O)c1cccc(c1)C(=O)N[C@H](CC1CCCCC1)CO2 [Compound 316] | – | – | – | – | EC50 (F508del; [3]): < 1 µM; Ent. A Max Activity (CFTR [1]; Enteroid Assay A): +++ (+++ is >600%); EC50 (CFTR [1]; Enteroid Assay A): < 1 µM
12 | Cc1cccc(F)c1-c1cc2nc(n1)NS(=O)(=O)c1cccc(c1)C(=O)N[C@H](CC(C)C)CO2 [Compound 98, (11R)-6-(2-Fluoro-6-methylphenyl)-11-(2-methylpropyl)-9-oxa-2λ^6-thia-3,5,12,19-tetraazatricyclo[12.3.1.14,8]nonadeca-1(17),4,6,8(19),14(18),15-hexaene-2,2,13-trione] | > 60 | < 1 | < 1 | +++ (+++ is >60%) | –
13 | Cc1cccc(C)c1-c1cc2nc(n1)NS(=O)(=O)c1cccc(c1)C(=O)NC(Cc1ccccc1)CO2 (stereo not shown) [Compound 206] | – | – | – | – | EC50 (F508del; [3]): < 1 µM; Ent. A Max Activity (CFTR [1]; Enteroid Assay A): +++ (+++ is >600%); EC50 (CFTR [1]; Enteroid Assay A): < 1 µM
14 | Cc1cc(C(C)(C)C)ccc1[C@@H]1CNC(=O)c2cccc(c2)S(=O)(=O)Nc2nc(cc(-c3c(C)cccc3C)n2)O1 [Compound 155] | > 60 | < 1 | < 1 | – | –
15 | CC1=C(c2cc3nc(n2)NS(=O)(=O)c2cccc(c2)C(=O)N[C@H](CC(C)C)CO3)C(C)CCC1 (stereo partly drawn) [Compound 100, (11R)-6-(2,6-Dimethylcyclohex-1-en-1-yl)-11-(2-methylpropyl)-9-oxa-2λ^6-thia-3,5,12,19-tetraazatricyclo[12.3.1.14,8]nonadeca-1(17),4,6,8(19),14(18),15-hexaene-2,2,13-trione] | > 60 | < 1 | 1 to 3 | +++ (+++ is >60%) | –
16 | Cc1cccc(C)c1-c1cc2nc(n1)NS(=O)(=O)c1cccc(c1)C(=O)NC[C@@H](c1ccc(C(C)(C)C)cn1)O2 (single isomer, unassigned) [Compound 7, 10-(5-tert-Butyl-2-pyridyl)-6-(2,6-dimethylphenyl)-2,2-dioxo-9-oxa-2λ^6-thia-3,5,12,19-tetrazatricyclo[12.3.1.14,8]nonadeca-1(18),4(19),5,7,14,16-hexaen-13-one] | > 60 | < 1 | < 1 | +++ (+++ is >60%) | –
17 | Cc1cccc(C)c1-c1cc2nc(n1)NS(=O)(=O)c1cccc(c1)C(=O)NCC(c1ccc3c(c1)CC(C)(C)O3)O2 (stereo not shown) [Compound 115] | > 60 | < 1 | 1 to 3 | – | –
18 | Cc1cccc(C)c1-c1cc2nc(n1)NS(=O)(=O)c1cccc(n1)C(=O)N[C@H](CC1CCCCC1)CO2 [Compound 411] | > 60 | < 1 | < 1 | +++ (+++ is >60%) | –
19 | Cc1cccc(C)c1-c1cc2nc(n1)NS(=O)(=O)c1cccc(c1)C(=O)NCCCO2 [Compound 204] | – | – | – | – | EC50 (F508del; [3]): 1 to 3 µM; Ent. A Max Activity (CFTR [1]; Enteroid Assay A): ++ (++ is 30-60%)
20 | Cc1cccc(C)c1-c1cc2nc(n1)NS(=O)(=O)c1cccc(c1)C(=O)N[C@H](C(C)(C)C)CO2 [Compound 361] | > 60 | < 1 | < 1 | +++ (+++ is >60%) | –
21 | Cc1cccc(C)c1-c1cc2nc(n1)NS(=O)(=O)c1cccc(c1)C(=O)NC1CCCC(C1)O2 (stereo not shown) [Compound 203] | – | – | – | – | EC50 (F508del; [3]): < 1 µM; Ent. A Max Activity (CFTR [1]; Enteroid Assay A): ++ (++ is 30-60%)
22 | Cc1cccc(C)c1-c1cc2nc(n1)NS(=O)(=O)c1cccc(c1)C(=O)N[C@H](C(CC(C)C)CC(C)C)CO2 [Compound 494] | > 60 | < 1 | < 1 | +++ (+++ is >60%) | –
23 | Cc1ccccc1-c1cc2nc(n1)NS(=O)(=O)c1cccc(c1)C(=O)N[C@H](CC(C)(C)C)CO2 [Compound 305] | > 60 | < 1 | < 1 | +++ (+++ is >60%) | –
24 | Cc1ccc2cc1C(=O)N[C@H](CC1CCCCC1)COc1cc(-c3c(C)cccc3C)nc(n1)NS2(=O)=O [Compound 161] | – | – | – | – | EC50 (F508del; [3]): 3 to 30 µM
25 | Cc1cccc(C)c1-c1cc2nc(n1)NS(=O)(=O)c1cccc(c1)C(=O)NC[C@@H](C1CCCCC1)O2 [Compound 269] | > 60 | < 1 | – | – | –
26 | Cc1cccc(C)c1-c1cc2nc(n1)NS(=O)(=O)c1cccc(c1)C(=O)N[C@@H]1CN(C3CC4(CCCC4)C3)C[C@H]1O2 [Compound 56, (3R,7R)-19-(2,6-Dimethylphenyl)-5-{spiro[3.4]octan-2-yl}-2-oxa-15λ^6-thia-5,8,16,18,21-pentaazatetracyclo[15.3.1.110,14.03,7]docosa-1(20),10(22),11,13,17(21),18-hexaene-9,15,15-trione] | – | – | – | – | Ent. A Max Activity (CFTR [1]; Table 9): +++ (+++ is >60%); EC50 (CFTR [1]; Table 9): < 1 µM; Ent. B Max Activity (CFTR [2]): ++ (++ is 30-60%); EC50 (CFTR [2]): < 1 µM
27 | Cc1cccc(C)c1-c1cc2nc(n1)NS(=O)(=O)c1cccc(c1)C(=O)N[C@@H]1CN(c3ccc(C(F)(F)F)cn3)C[C@H]1O2 [Compound 62, (3R,7R)-19-(2,6-Dimethylphenyl)-5-[5-(trifluoromethyl)pyridin-2-yl]-2-oxa-15λ^6-thia-5,8,16,18,21-pentaazatetracyclo[15.3.1.110,14.03,7]docosa-1(20),10(22),11,13,17(21),18-hexaene-9,15,15-trione] | – | – | – | – | Ent. A Max Activity (CFTR [1]; Table 9): +++ (+++ is >60%); EC50 (CFTR [1]; Table 9): < 1 µM; Ent. B Max Activity (CFTR [2]): ++ (++ is 30-60%); EC50 (CFTR [2]): < 1 µM
28 | Cc1cccc(C)c1-c1cc2nc(n1)NS(=O)(=O)c1cccc(c1)C(=O)N[C@@H]1CN(Cc3ccccc3)C[C@H]1O2 [Compound 383] | – | – | – | – | Ent. A Max Activity (CFTR [1]; Table 9): +++ (+++ is >60%); EC50 (CFTR [1]; Table 9): < 1 µM; Ent. B Max Activity (CFTR [2]): +++ (+++ is >60%); EC50 (CFTR [2]): < 1 µM
